# Test results taken from patent US12221422B2, “Compounds and their use for the treatment of alpha1-antitrypsin deficiency” (CENTESSA PHARMACEUTICALS (UK) LIMITED, priority 2018, dated 2025).
# Key:
# Pharmacokinetics in mice = format: in vivo; conditions: male C57BI/6 mice
# Protocol: N,N-dimethyl-4-((6-oxopyrimidin-1(6H)-yl)methyl)benzamide was administered to male C57BI/6 mice intravenously (2 mg/kg) or orally (10 mg/kg) by gavage. Whole blood diluted with water was prepared from these dosed animals over a time course up to 24 hours post dose to allow blood concentrations of drug to be measured by UPLC-MS/MS.
# TK6 cells = experiment: In vitro micronucleus assay; format: cell-based; set-up: relative increase in cell count (RICC): dose or concentration left out as unconfirmed; conditions: for relative increase in cell count (RICC): vs concurrent negative control
# Source text: The purpose of the in vitro micronucleus assay is to assess the ability of the test item to cause chromosome or spindle damage, or to interfere with the cell cycle, in ways which lead to the formation of micronuclei in the cytoplasm of TK6 cells. Chromosome defects are recognised as being the basis of a number of human genetic diseases. Micronuclei (MN) are the result of chromosome fragments or whole chromosomes remaining in the cytoplasm and not being incorporated into the nuclei of newly formed cells. These arise from damage to chromosomes leading to acentric fragments which cannot attach to the mitotic spindle; damage to the spindle apparatus preventing a chromosome from attaching to it or other interference with cell division. Assays were performed in the presence and absence of an exogenous mammalian oxidative metabolising system (S-9 mix, a liver post-mitochondrial fraction derived from the livers of Aroclor 1254 treated rats), to mimic mammalian metabolism. Cells were exposed to the test item for 3 hours and sampled 44 hours after the beginning of treatment. As a number of chemicals have been reported as only exerting positive effects following prolonged treatment, a continuous treatment of 27 hours in the absence of S-9 mix was also included. This was equivalent to 1.5 to 2.0 times the average generation time of cultured cells used in the assay. The test methodology was based on established procedures for in vitro micronucleus testing.
# N,N-dimethyl-4-((6-oxopyrimidin-1(6H)-yl)methyl)benzamide was tested up to the regulatory maximum dose level of 1 mM […] in all treatments.
# human Z A1AT = human Z A1AT (Homo sapiens, UniProt P01009, E366K); experiment: Circulating human Z A1AT levels in huZ mice; format: in vivo, huZ mouse; set-up: from tissue; host or cells: huZ (PiZZ) transgenic mice, line Z11.03, C57Bl/6 background; made in liver, measured in plasma; conditions: huZ mice, 5, 15 or 50 mg/kg twice a day by oral gavage, 14 days, plasma days 12-14
# human Z A1AT, sequence (P01009 25-418 E366K): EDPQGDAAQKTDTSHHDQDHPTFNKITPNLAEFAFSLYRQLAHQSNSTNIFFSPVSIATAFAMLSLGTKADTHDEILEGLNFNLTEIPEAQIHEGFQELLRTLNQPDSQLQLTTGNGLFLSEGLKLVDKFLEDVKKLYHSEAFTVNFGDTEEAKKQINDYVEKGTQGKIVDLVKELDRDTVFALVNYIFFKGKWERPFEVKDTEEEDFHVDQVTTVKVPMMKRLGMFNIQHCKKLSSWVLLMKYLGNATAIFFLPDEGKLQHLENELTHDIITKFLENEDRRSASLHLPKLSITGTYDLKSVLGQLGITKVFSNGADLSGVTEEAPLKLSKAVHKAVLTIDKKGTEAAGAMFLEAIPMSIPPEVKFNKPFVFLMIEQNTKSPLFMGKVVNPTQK
# Source text: The huZ mouse (also referred to as the PiZZ mouse) is a transgenic mouse strain that contains multiple copies of the Z variant of the human A1AT gene, developed by two separate groups Dycaico et al (Science (1988) 242:1409-12) and Carlson et al (J. Clin Invest (1989) 83:1183-90). PiZZ mice are on a C57Bl/6 background and express the human Z A1AT protein in liver tissue. The mice used in this study are from the progeny of Carlson and colleagues (transgenic line Z11.03). […]
# HuZ mice (n=4/group; male or female) with basal human A1AT plasma levels of between 200-600 μg/ml were treated with either vehicle or N,N-dimethyl-4-((6-oxopyrimidin-1(6H)-yl)methyl)benzamide at 5, 15 or 50 mg/kg twice a day by oral gavage for 14 consecutive days. […] Human Z A1AT levels in mouse plasma samples were measured by ELISA (Human Serpin A1/α1-antitrypsin duo set ELISA, R& D Systems, DY1268) per manufacturer's instructions.
# Briefly, a 96 well plate was coated with human A1AT capture antibody overnight at room temperature (1:180 dilution from stock, 100 μl final volume/well). […] After which, 50 μl stop solution (2M H2SO4) was added and optical density (OD) of each well was read at 450 nm with 570 nm blank subtracted from each well using a microplate reader. […]
# The effect of N,N-dimethyl-4-((6-oxopyrimidin-1(6H)-yl)methyl)benzamide on circulating levels of human Z A1AT was assessed in a huZ mouse model. […]
# [1] = mouse, whole blood, iv 2 mg/kg or oral 10 mg/kg (route not stated), blood
compound,measurement,setting,value
"CN(C)C(=O)c1ccc(Cn2cnccc2=O)cc1 [N,N-dimethyl-4-((6-oxopyrimidin-1(6H)-yl)methyl)benzamide]","Oral Bioavailability (F, AUCINF)",Pharmacokinetics in mice; oral 10 mg/kg vs iv 2 mg/kg,73%
same,AUC,Pharmacokinetics in mice; [1],15600 ng·h/mL
same,AUC(0-inf),Pharmacokinetics in mice; [1],15600 ng·h/mL
same,half-life,"Pharmacokinetics in mice; mouse, whole blood, iv 2 mg/kg or oral 10 mg/kg, read-out: Half-life in blood (t1/2) (converted)",114 min
same,clearance,"Pharmacokinetics in mice; mouse, whole blood, iv 2 mg/kg or oral 10 mg/kg, read-out: Observed clearance",7.8 mL/min/kg
same,Vd,"Pharmacokinetics in mice; mouse, whole blood, iv 2 mg/kg or oral 10 mg/kg, read-out: Volume of distribution (Vz)",1.3 L/kg
same,Cmax,"Pharmacokinetics in mice; mouse, whole blood, oral 10 mg/kg, blood",9310 ng/mL
same,relative increase in cell count (RICC),"TK6 cells; absence of S-9 mix, 3 hour treatment",98%
same,relative increase in cell count (RICC),"TK6 cells; absence of S-9 mix, 27 hour treatment",74%
same,relative increase in cell count (RICC),"TK6 cells; presence of S-9 mix, 3 hour treatment",105%
same,clastogenicity / aneugenicity,TK6 cells; presence or absence of S 9 mix,neither clastogenic nor aneugenic
same,cytotoxicity,"TK6 cells; up to 1 mM, 27 hour treatment only",only slight cytotoxicity
same,percentage MN (% MN),"TK6 cells; with S-9 mix 3 hour, without S-9 mix 3 hour or 27 hour",no statistically significant increases
same,circulating human Z A1AT compared to baseline levels,human Z A1AT,stimulates secretion of human Z A1AT compared to baseline levels in huZ mice in a dose dependent manner
